{"source": "patent US20200069691A1", "about": "“HETEROCYCLIC COMPOUNDS AS HIV PROTEASE INHIBITORS” (Merck Sharp & Dohme Corp., priority 2016, published 2020)"}
{"molecular_target": "T1, wild-type HIV-1 protease (Human immunodeficiency virus type 1 group M subtype B, UniProt P04585)", "T1 construct": "Escherichia coli expressed wild-type HIV-1 protease protein", "test": "Assay for Inhibition of Microbial Expressed HIV Protease (peptide substrate cleavage, LC-MS/MS readout)", "assay_type": "biochemical", "conditions": "E. coli expressed wild-type HIV-1 protease, mean of at least two independent experiments, read-out: HIV Pr Enzyme HIV1 PR IC50", "how_it_was_run": "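E. coli-expressed wild-type HIV-1 protease ([…]) was preincubated with inhibitor 30 min at room temperature in pH 5.5 acetate buffer (100 mM NaCl, 0.1% BSA). Then 400 μM octapeptide substrate was added and reacted 1 h at 30 °C; inhibition came from LC-MS/MS product peak areas, mean of ≥2 experiments.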", "units": {"IC50": "nM"}}
{"smiles": "COC(=O)Nc1ncc2c(n1)CN(C(=O)c1ccc3c(c1)[C@H](N1C(=N)N[C@](CCC(C)C)(c4ccccc4)C1=O)CCC3)C2", "note": "[Compound 81, methyl [6-({(8R)-8-[(4R)-2-imino-4-(3-methylbutyl)-5-oxo-4-phenylimidazolidin-1-yl]-5,6,7,8-tetrahydronaphthalen-2-yl}carbonyl)-6,7-dihydro-5H-pyrrolo[3,4-d]pyrimidin-2-yl]carbamate]", "IC50": 12}
{"smiles": "N=C1NC(CCC2CC2)(c2cc(F)cc(F)c2)C(=O)N1Cc1ccc(C(F)(F)F)c(C(=O)N2CCn3c(nnc3C(F)(F)F)C2)c1", "note": "(stereo not shown) [Compound 82, 5-(2-cyclopropylethyl)-5-(3,5-difluorophenyl)-2-imino-3-[4-(trifluoromethyl)-3-{[3-(trifluoro-methyl)-5,6-dihydro-[1,2,4]triazolo-[4,3-a]pyrazin-7(8H)-yl]carbonyl}-benzyl]imidazolidin-4-one]", "IC50": 13.1}
{"smiles": "N=C1N[C@](CCCC(F)(F)F)(c2ccc(F)cc2)C(=O)N1Cc1ccc(C(F)(F)F)c(C(=O)N2Cc3cnc(N4CCOCC4)nc3C2)c1", "note": "[Compound 83, (5R)-5-(4-fluorophenyl)-2-imino-3-{3-[(2-morpholin-4-yl-5,7-dihydro-6H-pyrrolo[3,4-d]pyrimidin-6-yl)carbonyl]-4-(trifluoromethyl)-benzyl}-5-(4,4,4-trifluorobutyl)imidazolidin-4-one]", "IC50": 13.9}
{"smiles": "Cc1nonc1N1CCN(C(=O)c2cc(CN3C(=N)N[C@](CCCC(F)(F)F)(c4ccc(F)cc4)C3=O)ccc2C(F)(F)F)CC1", "note": "[Compound 84, (5R)-5-(4-fluorophenyl)-2-imino-3-[3-{[4-(4-methyl-1,2,5-oxadiazol-3-yl)piperazin-1-yl]carbonyl}-4-(trifluoromethyl)benzyl]-5-(4,4,4-trifluorobutyl)imidazolidin-4-one]", "IC50": 14.1}
{"smiles": "N=C1N[C@](CCCC(F)(F)F)(c2ccc(F)cc2)C(=O)N1Cc1ccc(C(F)(F)F)c(C(=O)N2Cc3cnc(NC4CCC4)nc3C2)c1", "note": "[Compound 85, (5R)-3-[3-{[2-(cyclobutylamino)-5,7-dihydro-6H-pyrrolo[3,4-d]pyrimidin-6-yl]carbonyl}-4-(trifluoromethyl)benzyl]-5-(4-fluorophenyl)-2-imino-5-(4,4,4-trifluorobutyl)imidazolidin-4-one]", "IC50": 14.4}
{"smiles": "N=C1N[C@](CCCC(F)(F)F)(c2ccc(F)cc2)C(=O)N1Cc1ccc(C(F)(F)F)c(C(=O)N2Cc3cnc(-c4cccc(F)c4)nc3C2)c1", "note": "[Compound 86, (5R)-5-(4-fluorophenyl)-3-[3-{[2-(3-fluorophenyl)-5,7-dihydro-6H-pyrrolo[3,4-d]pyrimidin-6-yl]carbonyl}-4-(trifluoromethyl)-benzyl]-2-imino-5-(4,4,4-trifluorobutyl)imidazolidin-4-one]", "IC50": 14.5}
{"smiles": "N=C1N[C@](CCCC(F)(F)F)(c2ccc(F)cc2)C(=O)N1Cc1ccc(C(F)(F)F)c(C(=O)N2CCN3C(=O)OCC3C2)c1", "note": "(stereo partly drawn) [Compound 87, 7-{[5-{[(4R)-4-(4-fluorophenyl)-2-imino-5-oxo-4-(4,4,4-trifluoro-butyl)imidazolidin-1-yl]methyl}-2-(trifluoromethyl)phenyl]carbonyl}hexahydro[1,3] oxazolo[3,4-a]pyrazin-3-one]", "IC50": 14.8}
{"smiles": "N=C1N[C@](CCCC(F)(F)F)(c2ccc(F)cc2)C(=O)N1Cc1ccc(C(F)(F)F)c(C(=O)N2CCN(c3cncnc3)CC2)c1", "note": "[Compound 88, (5R)-5-(4-fluorophenyl)-2-imino-3-{3-[(4-pyrimidin-5-ylpiperazin-1-yl)carbonyl]-4-(trifluoromethyl)-benzyl}-5-(4,4,4-trifluorobutyl)-imidazolidin-4-one]", "IC50": 15.2}
{"smiles": "N=C1N[C@](CCCC(F)(F)F)(c2ccc(F)cc2)C(=O)N1Cc1ccc(C(F)(F)F)c(C(=O)N2Cc3cnc(-c4ccc(-n5cccn5)nc4)nc3C2)c1", "note": "[Compound 89, (5R)-5-(4-fluorophenyl)-2-imino-3-[3-({2-[6-(1H-pyrazol-1-yl)pyridin-3-yl]-5,7-dihydro-6H-pyrrolo[3,4-d]pyrimidin-6-yl}carbonyl)-4-(trifluoromethyl)benzyl]-5-(4,4,4-trifluorobutyl)imidazolidin-4-one]", "IC50": 15.7}
{"smiles": "CC(C)(O)C(=O)N1CCN(C(=O)c2cc(CN3C(=N)N[C@](CCCC(F)(F)F)(c4ccc(F)cc4)C3=O)ccc2C(F)(F)F)CC1", "note": "[Compound 90, (5R)-5-(4-fluorophenyl)-3-[3-{[4-(2-hydroxy-2-methylpropanoyl)-piperazin-1-yl]carbonyl}-4-(trifluoromethyl)benzyl]-2-imino-5-(4,4,4-trifluorobutyl)imidazolidin-4-one]", "IC50": 15.8}
{"smiles": "N=C1NC(CCC2CC2)(c2cc(F)cc(F)c2)C(=O)N1Cc1ccc(C(F)(F)F)c(C(=O)N2CCn3c(nnc3C(F)(F)F)C2)c1", "note": "(stereo not shown) [Compound 91, 5-(2-cyclopropylethyl)-5-(3,5-difluorophenyl)-2-imino-3-[4-(trifluoromethyl)-3-{[3-(trifluoro-methyl)-5,6-dihydro[1,2,4]triazolo-[4,3-a]pyrazin-7(8H)-yl]carbonyl}-benzyl]imidazolidin-4-one]", "IC50": 16.3}
{"smiles": "CS(=O)(=O)N1CCN(C(=O)c2cc(CN3C(=N)N[C@](CCCC(F)(F)F)(c4ccc(F)cc4)C3=O)ccc2C(F)(F)F)CC1", "note": "[Compound 92, (5R)-5-(4-fluorophenyl)-2-imino-3-[3-{[4-(methylsulfonyl)piperazin-1-yl]carbonyl}-4-(trifluoromethyl)-benzyl]-5-(4,4,4-trifluorobutyl)-imidazolidin-4-one]", "IC50": 17.3}
{"smiles": "N=C1N[C@](CCC2CC2)(c2ccc(F)cc2)C(=O)N1[C@@H]1CCCCc2ccc(C(=O)N3Cc4nccnc4C3)cc21", "note": "[Compound 93, (5R)-5-(2-cyclopropylethyl)-3-[(5R)-3-(5,7-dihydro-6H-pyrrolo-[3,4-b]pyrazin-6-ylcarbonyl)-6,7,8,9-tetrahydro-5H-benzo-[7]annulen-5-yl]-5-(4-fluoro-phenyl)-2-iminoimidazolidin-4-one]", "IC50": 18.5}
{"smiles": "N=C1N[C@](CCCC(F)(F)F)(c2ccc(F)cc2)C(=O)N1Cc1ccc(C(F)(F)F)c(C(=O)N2Cc3cnc(-c4ccccc4)nc3C2)c1", "note": "[Compound 94, (5R)-5-(4-fluorophenyl)-2-imino-3-{3-[(2-phenyl-5,7-dihydro-6H-pyrrolo[3,4-d]pyrimidin-6-yl)carbonyl]-4-(trifluoromethyl)-benzyl}-5-(4,4,4-trifluorobutyl)-imidazolidin-4-one]", "IC50": 19.2}
{"smiles": "N=C1N[C@](CCCC(F)(F)F)(c2ccc(F)cc2)C(=O)N1Cc1ccc(C(F)(F)F)c(C(=O)N2Cc3cnc(-c4cccc(-n5nccn5)c4)nc3C2)c1", "note": "[Compound 95, (5R)-5-(4-fluorophenyl)-2-imino-3-[3-({2-[3-(2H-1,2,3-triazol-2-yl)phenyl]-5,7-dihydro-6H-pyrrolo-[3,4-d]pyrimidin-6-yl}carbonyl)-4-(trifluoromethyl)benzyl]-5-(4,4,4-trifluorobutyl)imidazolidin-4-one]", "IC50": 19.4}
{"smiles": "COC(=O)Nc1ncc2c(n1)CN(C(=O)c1ccc3c(c1)[C@H](N1C(=N)N[C@](CCC(C)C)(c4ccccc4)C1=O)CC3)C2", "note": "[Compound 96, methyl [6-({(3R)-3-[(4R)-2-imino-4-(3-methylbutyl)-5-oxo-4-phenylimidazolidin-1-yl]-2,3-dihydro-1H-inden-5-yl}carbonyl)-6,7-dihydro-5H-pyrrolo[3,4-d]pyrimidin-2-yl]carbamate]", "IC50": 20.4}
